The values that follow come from EP4722201A1, “3-PHENYLISOXAZOLINE-5-CARBOXAMIDE COMPOUND, AND PREPARATION METHOD THEREFOR, HERBICIDAL COMPOSITION THEREOF AND USE THEREOF” (Jiangsu Flag Chemical Industry Co., Ltd, priority 2023, dated 2024).

Common to all, as to test: Indoor herbicide activity determination, Seed Treatment; pre-emergence (soil spray)
Holding throughout (format): in vivo

The subject of one assay is Digitaria sanguinalis. The conditions noted are these: read-out: Herbicidal activities (inhibition rate) Digitaria sanguinalis; for inhibition at 120 g/ha: 120 g a.i./ha. Put shortly: (§1)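 Sow seeds into soil-filled 7 cm pots (sandy, pH 6.1, 1% organic matter) and cover them. Water from beneath, then incubate 24 h in a lit, temperature-controlled chamber. Spray the soil in a traveling tower, let it dry in shade, grow on 21 days, and weigh fresh biomass against controls.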

The next assay concerns Alopecurus myosuroides. Put shortly: as §1
The next assay concerns Eclipta prostrata. The conditions noted are these: read-out: Herbicidal activities (inhibition rate) Eclipta prostrata; for inhibition at 120 g/ha: 120 g a.i./ha. Put shortly:
as §1

Another assay concerns Lolium multiflorum. Put shortly:
as §1

For a further assay, the system named is Eleusine indica. Put shortly:
as §1

Another assay deals with Alopecurus japonicus. Put shortly:
as §1

The test system of a further assay is Aegilops tauschii. The settings on record: read-out: Herbicidal activities (inhibition rate) Aegilops tauschii; for inhibition at 120 g/ha: 120 g a.i./ha. Put shortly:
as §1

A further assay has as its system Leptochloa chinensis. Put shortly:
as §1

The test system of the next assay is Cyperus iria. The conditions noted are these: read-out: Herbicidal activities (inhibition rate) Cyperus iria; for inhibition at 120 g/ha: 120 g a.i./ha. Put shortly: as §1

As for `CC1(C(=O)N[C@H]2C=C[C@@H](C(=O)O)C2)CC(c2cc(F)cc(OC(F)(F)F)c2)=NO1` (stereo partly drawn) [I-488], the inhibition (as a rule, the percentage by which the read-out fell short of the control) at 120 g/ha lay within 60 to 80% in the assay with Digitaria sanguinalis, 80 to 100% in the assay on Eclipta prostrata, 80 to 100% with Aegilops tauschii and 80 to 100% with Cyperus iria. The “Herbicidal activity (inhibition rate class), Alopecurus myosuroides” value with Alopecurus myosuroides (Dosage 240 g a.i./ha) was “A (A indicates that the inhibition rate was greater than or equal to 80% to 100%)”. For the same compound, the “Herbicidal activity (inhibition rate class), Lolium multiflorum” value with Lolium multiflorum (Dosage 240 g a.i./ha) is “A (A indicates that the inhibition rate was greater than or equal to 80% to 100%)”. Moreover, the “Herbicidal activity (inhibition rate class), Eleusine indica” value in the assay on Eleusine indica (Dosage 240 g a.i./ha) is recorded as “A (A indicates that the inhibition rate was greater than or equal to 80% to 100%)”. Further, the “Herbicidal activity (inhibition rate class), Alopecurus japonicus” value in the assay with Alopecurus japonicus (Dosage 240 g a.i./ha) is recorded as “A (A indicates that the inhibition rate was greater than or equal to 80% to 100%)”. In addition, the “Herbicidal activity (inhibition rate class), Leptochloa chinensis” value with Leptochloa chinensis (Dosage 240 g a.i./ha) is “A (A indicates that the inhibition rate was greater than or equal to 80% to 100%)”.

With `CC1(C(=O)N[C@H]2C=C[C@@H](C(=O)O)C2)CC(c2cc(Cl)cc(OC(F)(F)F)c2)=NO1` (stereo partly drawn) [I-485], the inhibition at 120 g/ha with Digitaria sanguinalis is 60 to 80%; in the assay with Eclipta prostrata, 80 to 100%; in the assay with Aegilops tauschii, 80 to 100%; in the assay on Cyperus iria it was 80 to 100%. The “Herbicidal activity (inhibition rate class), Alopecurus myosuroides” value with Alopecurus myosuroides (Dosage 240 g a.i./ha) was “A (A indicates that the inhibition rate was greater than or equal to 80% to 100%)”. In the assay on Lolium multiflorum (Dosage 240 g a.i./ha), the “Herbicidal activity (inhibition rate class), Lolium multiflorum” value is listed as “A (A indicates that the inhibition rate was greater than or equal to 80% to 100%)”. The “Herbicidal activity (inhibition rate class), Eleusine indica” value with Eleusine indica (Dosage 240 g a.i./ha) is given as “A (A indicates that the inhibition rate was greater than or equal to 80% to 100%)”. For the same compound, the “Herbicidal activity (inhibition rate class), Alopecurus japonicus” value with Alopecurus japonicus (Dosage 240 g a.i./ha) is listed as “A (A indicates that the inhibition rate was greater than or equal to 80% to 100%)”. In addition, the “Herbicidal activity (inhibition rate class), Leptochloa chinensis” value in the assay with Leptochloa chinensis (Dosage 240 g a.i./ha) is on record as “A (A indicates that the inhibition rate was greater than or equal to 80% to 100%)”.

In the case of `O=C(O)[C@@H]1C=C[C@H](NC(=O)[C@@]2(C(F)(F)F)CC(c3cc(F)cc(C(F)(F)F)c3)=NO2)C1` [I-516], the inhibition at 60 g/ha with Digitaria sanguinalis (60 g a.i./ha) fell in the range of 80 to 100%; with Eclipta prostrata (60 g a.i./ha), 60 to 80%; with Aegilops tauschii (60 g a.i./ha) it was 80 to 100%; in the assay on Cyperus iria (60 g a.i./ha), 80 to 100%. In the assay with Alopecurus myosuroides (Dosage 120 g a.i./ha), the “Herbicidal activity (inhibition rate class), Alopecurus myosuroides” value is “A (A indicates that the inhibition rate was greater than or equal to 80% to 100%)”. For the same compound, the “Herbicidal activity (inhibition rate class), Lolium multiflorum” value in the assay on Lolium multiflorum (Dosage 120 g a.i./ha) is on record as “A (A indicates that the inhibition rate was greater than or equal to 80% to 100%)”. Further, in the assay on Eleusine indica (Dosage 120 g a.i./ha), the “Herbicidal activity (inhibition rate class), Eleusine indica” value is “A (A indicates that the inhibition rate was greater than or equal to 80% to 100%)”. Further, the “Herbicidal activity (inhibition rate class), Alopecurus japonicus” value in the assay with Alopecurus japonicus (Dosage 120 g a.i./ha) is recorded as “A (A indicates that the inhibition rate was greater than or equal to 80% to 100%)”. Further, the “Herbicidal activity (inhibition rate class), Leptochloa chinensis” value with Leptochloa chinensis (Dosage 120 g a.i./ha) is listed as “A (A indicates that the inhibition rate was greater than or equal to 80% to 100%)”.

Regarding `C=CC1(C(=O)N[C@H]2CO[C@@H](C(=O)OC)C2)CC(c2cc(F)cc(OC(F)(F)F)c2)=NO1` (mixture of isomers) [I-369], the inhibition at 120 g/ha with Digitaria sanguinalis lay within 60 to 80%; with Eclipta prostrata, 40 to 60%; with Aegilops tauschii, 80 to 100%; in the assay on Cyperus iria, 60 to 80%. Besides, the “Herbicidal activities, Alopecurus myosuroides (inhibition rate class)” value with Alopecurus myosuroides (Dosage 240 g a.i./ha) was “A (A indicates that the inhibition rate was greater than or equal to 80% to 100%)”. For the same compound, in the assay on Lolium multiflorum (Dosage 240 g a.i./ha), the “Herbicidal activities, Lolium multiflorum (inhibition rate class)” value was “A (A indicates that the inhibition rate was greater than or equal to 80% to 100%)”. The “Herbicidal activities, Eleusine indica (inhibition rate class)” value in the assay on Eleusine indica (Dosage 240 g a.i./ha) is on record as “A (A indicates that the inhibition rate was greater than or equal to 80% to 100%)”. Further, in the assay on Alopecurus japonicus (Dosage 240 g a.i./ha), the “Herbicidal activities, Alopecurus japonicus (inhibition rate class)” value is reported as “A (A indicates that the inhibition rate was greater than or equal to 80% to 100%)”. Besides, the “Herbicidal activities, Leptochloa chinensis (inhibition rate class)” value with Leptochloa chinensis (Dosage 240 g a.i./ha) is “A (A indicates that the inhibition rate was greater than or equal to 80% to 100%)”.

Consider `CSCCOC(=O)[C@@H]1C=C[C@H](NC(=O)C2(C)CC(c3cc(Cl)cc(OC(F)(F)F)c3)=NO2)C1` (stereo partly drawn) [I-487], for which the inhibition at 120 g/ha with Digitaria sanguinalis is 60 to 80%; in the assay on Eclipta prostrata, 80 to 100%; with Aegilops tauschii, 80 to 100%; in the assay with Cyperus iria, 80 to 100%. For the same compound, the “Herbicidal activity (inhibition rate class), Alopecurus myosuroides” value with Alopecurus myosuroides (Dosage 240 g a.i./ha) was “A (A indicates that the inhibition rate was greater than or equal to 80% to 100%)”. In the assay with Lolium multiflorum (Dosage 240 g a.i./ha), the “Herbicidal activity (inhibition rate class), Lolium multiflorum” value is “A (A indicates that the inhibition rate was greater than or equal to 80% to 100%)”. Also, the “Herbicidal activity (inhibition rate class), Eleusine indica” value in the assay on Eleusine indica (Dosage 240 g a.i./ha) was “A (A indicates that the inhibition rate was greater than or equal to 80% to 100%)”. For the same compound, in the assay on Alopecurus japonicus (Dosage 240 g a.i./ha), the “Herbicidal activity (inhibition rate class), Alopecurus japonicus” value was “A (A indicates that the inhibition rate was greater than or equal to 80% to 100%)”. Also, in the assay on Leptochloa chinensis (Dosage 240 g a.i./ha), the “Herbicidal activity (inhibition rate class), Leptochloa chinensis” value is on record as “A (A indicates that the inhibition rate was greater than or equal to 80% to 100%)”.

For the compound `C=CC1(C(=O)N[C@H]2CO[C@@H](C(=O)OC)C2)CC(c2cc(Cl)cc(OC(F)F)c2)=NO1` (mixture of isomers) [I-373], the inhibition at 120 g/ha with Digitaria sanguinalis was 80 to 100%; with Eclipta prostrata, 80 to 100%; in the assay with Aegilops tauschii, 60 to 80%; in the assay with Cyperus iria, 60 to 80%. Also, the “Herbicidal activities, Alopecurus myosuroides (inhibition rate class)” value in the assay with Alopecurus myosuroides (Dosage 240 g a.i./ha) is “A (A indicates that the inhibition rate was greater than or equal to 80% to 100%)”. In addition, the “Herbicidal activities, Lolium multiflorum (inhibition rate class)” value with Lolium multiflorum (Dosage 240 g a.i./ha) is on record as “A (A indicates that the inhibition rate was greater than or equal to 80% to 100%)”. For the same compound, the “Herbicidal activities, Eleusine indica (inhibition rate class)” value in the assay with Eleusine indica (Dosage 240 g a.i./ha) is on record as “B (B indicates that the inhibition rate was greater than or equal to 60% to less than 80%)”. Further, the “Herbicidal activities, Alopecurus japonicus (inhibition rate class)” value in the assay on Alopecurus japonicus (Dosage 240 g a.i./ha) is recorded as “A (A indicates that the inhibition rate was greater than or equal to 80% to 100%)”. Besides, in the assay on Leptochloa chinensis (Dosage 240 g a.i./ha), the “Herbicidal activities, Leptochloa chinensis (inhibition rate class)” value was “A (A indicates that the inhibition rate was greater than or equal to 80% to 100%)”.

Take `CC1(C(=O)N[C@H]2C=C[C@@H](C(=O)OCCS(C)(=O)=O)C2)CC(c2cc(F)cc(OC(F)(F)F)c2)=NO1` (stereo partly drawn) [I-492]: the inhibition at 120 g/ha fell in the range of 80 to 100% in the assay with Digitaria sanguinalis, 80 to 100% in the assay on Eclipta prostrata, 80 to 100% with Aegilops tauschii and 60 to 80% in the assay on Cyperus iria. Also, in the assay with Alopecurus myosuroides (Dosage 240 g a.i./ha), the “Herbicidal activity (inhibition rate class), Alopecurus myosuroides” value was “A (A indicates that the inhibition rate was greater than or equal to 80% to 100%)”. Also, the “Herbicidal activity (inhibition rate class), Lolium multiflorum” value in the assay on Lolium multiflorum (Dosage 240 g a.i./ha) is recorded as “A (A indicates that the inhibition rate was greater than or equal to 80% to 100%)”. For the same compound, the “Herbicidal activity (inhibition rate class), Eleusine indica” value in the assay on Eleusine indica (Dosage 240 g a.i./ha) is on record as “A (A indicates that the inhibition rate was greater than or equal to 80% to 100%)”. Further, the “Herbicidal activity (inhibition rate class), Alopecurus japonicus” value in the assay on Alopecurus japonicus (Dosage 240 g a.i./ha) was “A (A indicates that the inhibition rate was greater than or equal to 80% to 100%)”. For the same compound, the “Herbicidal activity (inhibition rate class), Leptochloa chinensis” value with Leptochloa chinensis (Dosage 240 g a.i./ha) is “A (A indicates that the inhibition rate was greater than or equal to 80% to 100%)”.
